# Results from patent US7205002B2, “Method of making, and the use of cytotoxic agents containing elemental selenium” (MCW Research Foundation, Inc., priority 2002, dated 2007).
# Where two headings read alike, the source gives them in different places. * marks the point of attachment. Cbz = O=C(OCc1ccccc1)*; CH2F = FC*
# Legend:
# [1] = test system: Wild-type L1210 leukemia cells; experiment: Surviving fraction after 45 min exposure, in vitro clonal assay; format: cell-based, murine; conditions: 10 μg/ml
# Experimental: (§1) Cytotoxic Se(0)-protein conjugates were generated by exposing alpha-medium supplemented with fetal bovine serum (10%) and selenomerocyanine photosensitizer MC54 (26 μM) to cool white fluorescent light (fluence rate: 27 W/m^2) for 60 min. Wild-type L1210 leukemia cells, melphalan-resistant mutant L1210/L-PAM1 cells, or normal murine granulocyte/macrophage progenitors (mCFU-GM) (10^6/ml) were suspended either in cytotoxic conjugates or in alpha-medium supplemented with 4-HC (10 μg/ml) and incubated for 45 min at 37° C. Treatment conditions were selected to achieve a similar recovery of normal murine hematopoietic progenitor cells (mCFU-GM). Cells were washed free of excess conjugates or drug, and surviving fractions were determined by in vitro clonal assay.
# [2] = test system: melphalan-resistant mutant L1210/L-PAM1 cells; experiment: as above; format: cell-based, murine; conditions: 10 μg/ml
# Experimental: as §1
# [3] = test system: normal murine granulocyte/macrophage progenitors (mCFU-GM); experiment: as above; format: cell-based; conditions: 10 μg/ml
# Experimental: as §1
# L1210 leukemia cells = experiment: Cytotoxic activity of conjugates formed by dye photoproducts and serum (lipo)proteins, in vitro clonal assay; format: cell-based, murine
# Experimental: The mixtures were exposed to white light (27 W/m^2) for 60 min as deescribed above. […] To assess cytotoxic activity, cytotoxic conjugates were made isotonic by the addition of an appropriate volume of double-concentrated alpha-medium and incubated with L1210 leukemia cells for 60 min at 37° C. The surviving fraction of in vitro clonogenic leukemia cells was determined by in vitro clonal assay as described in Sieber, F. et al., 1984, which is incorporated by reference in its entirety. […] The fluorescence yield of fluorescent photoproduct-albumin conjugates was determined with a Hitachi F4500 fluorescence spectrophotometer. All samples were serially diluted with buffer to rule out artifacts due to self-quenching. In vitro clonal assays of L1210 murine leukemia cells were used to assess cytotoxic activity.
# [4] = test system: caspase activity in L1210 leukemia cells; experiment: Caspase Detection Kit (FITC-VAD-FMK) with specific peptide inhibitors; format: cell-based, murine; conditions: inhibitor 0.1 mM, 37° C., 1 hour
# Experimental: Conjugates were derived from MC56 to avoid a spectral interference with the fluorescent caspase substrate. The protein source was fetal bovine serum. Caspase inhibitors were used as recommended by the manufacturer (R&D Systems). That is, each sample contained 10^6 cells, and the final concentration of inhibitors was 0.1 mM. Incubation was at 37° C. for 1 hour. […] In FIG. 12, the “Z-” prefix and the “-FMK” suffix are omitted because of space limitations.
# We have used the Oncogene (San Diego, Calif.) Caspase Detection Kit to monitor caspase activity in L1210 leukemia cells after exposure to cytotoxic Se(0)-protein conjugates. The kit uses a fluorescent substrate (FITC-VAD-FMK; a conjugate of fluoresceinisothiocyanate with a fluoromethylketone-derivaticed short peptide) that detects a broad range of caspases. When FITC-VAD-FMK is used in conjunction with non-cytotoxic concentrations of specific peptide inhibitors (R&D Systems, Minneapolis, Minn.), the inhibition of the fluorescent signal is directly proportional to the contribution of the respective caspases to the overall signal. […] Caspases 2, 4 and 9 show moderate activation whereas caspases 1, 3, 6 and 8 show little or no activity. […]
# [5] = test system: DU145 prostate cancer cells; experiment: Cytotoxicity of conjugates alone or in combination; format: cell-based, human
# Experimental: The study was conducted with DU145 human prostate cancer cells. The protein source was fetal bovine serum, and the data points are means of 4 plates±SE.
# [6] = test system: MDA-MB-435 breast cancer cells; experiment: Cytotoxicity of conjugates in combination; format: cell-based, human; conditions: 0.5 mM; 20 hours
# [7] = test system: PC3 prostate cancer cells; experiment: Cytotoxicity of conjugates in combination; format: cell-based
# [8] = in vivo; cited from earlier work
# female B6D2F1 mice = experiment: Acute systemic toxicity, intraperitoneal injection; format: in vivo; conditions: MC54 26 μM with equimolar bovine serum albumin; 1-ml i.p. injection on 1 to 5 consecutive days
# Experimental: Acute Systemic Toxicity of Photoproduct-Protein Conjugates in Mice: In an initial acute toxicity study, groups of 5 female B6D2F1 mice were injected intraperitoneally with photoproduct-protein conjugates. The photoproduct-protein conjugates were generated by photobleaching the selenomerocyanine MC54 (26 μM) in the presence of an equimolar concentration of bovine serum albumin. Group 1 received one 1-ml intraperitoneal injection of this conjugate. Groups 2 through 5 received the same injection of conjugates on 2, 3, 4, or 5 consecutive days, respectively.
# The second toxicity experiment used conjugates that had been prepared with a dye-to-protein ratio of 5:1. Since MC54 was added from stock solutions in ethanol, the mice of the second series were exposed to 5-fold higher doses of ethanol.
# tumor cells = experiment: Interactions of conjugates with ionizing radiation and standard chemotherapeutic agents; conditions: 30 min pretreatment, nontoxic 3 mg/ml
# Description: Alternatively, 5 or 6 doses of conjugates were used in combination with one or two doses of a drug. Depending on the combination, the two agents were applied either sequentially or simultaneously. […] For each combination, two or more target cells were selected from the following panel of tumor cell lines: L1210 and HL-60/ADR leukemia cells, PC3 and DU145 prostate cancer cells, H69 lung cancer cells, Mm5MT, MDA-MB-23 1, MDA-MB-435 and C1271 breast cancer cells, and SK-ES-1 Ewing's sarcoma cells.
molecule,measurement,setting,value
"O=P1(N(CCCl)CCCl)NC(OO)CCO1 (stereo not shown) [Dye 4-HC, 4-Hydroperoxycyclophosphamide]",Surviving Fraction,[1],0.0460 ± 0.0043
same,Surviving Fraction,[2],0.2636 ± 0.0074
same,Surviving Fraction,[3],0.0088 ± 0.0025
Fetal bovine serum,Cytotoxic Activity,L1210 leukemia cells,yes
Bovine serum albumin: carrier protein for conjugates with MC54-derived photoproducts,Cytotoxic Activity,L1210 leukemia cells,yes
Cbz-Val-Ala-Asp-CH2F,Inhibition of the fluorescent caspase signal,[4],reduced the fluorescence signal more than any of the specific inhibitors
CCCCS(=N)(=O)CCC(N)C(=O)O (stereo not shown) [buthionine sulfoximine],Effect of pretreatment on response to conjugates,"[5]; 0.5 mM, 20 hours",improved the response
same,Effect of pretreatment on response to conjugates,[6],little or no effect
same,Effect of pretreatment on response to conjugates,"[7]; 0.5 mM, 20 hours",little or no effect
albumin,Cytotoxicity of conjugates by carrier (lipo)protein,L1210 leukemia cells,more cytotoxic than conjugates formed by HDL
same,half-life,[8],approximately 19 days
photoproduct-protein conjugates: generated by photobleaching the selenomerocyanine MC54 (26 μM) in the presence of an equimolar concentration of bovine serum albumin,Signs of toxicity,female B6D2F1 mice,None of the animals showed signs of acute or chronic toxicity
same,Survival,female B6D2F1 mice,All animals survived
CCCCN1C(=O)C(=C/C=C/C=C2\Oc3ccccc3N2CCCS(=O)(=O)[O-])C(=O)N(CCCC)C1=S.[Na+] [MC540],Cytotoxic Activity,L1210 leukemia cells,no
Carboxymethylated bovine serum albumin: commercial product from Sigma Chemical Co.,Cytotoxic Activity,L1210 leukemia cells,no
CCO [Ethanol],Cytotoxic Activity,L1210 leukemia cells; MC54-derived photoproducts with the given solvent/protein,no
N.N.[Cl][Pt][Cl] [cisplatin],"Antitumor effect, sequential exposure with conjugates",[5]; sequential exposure,additive
same,"Antitumor effect, sequential exposure with conjugates",[7]; sequential exposure,additive
NCCCNCCSP(=O)(O)O [amifostine],Effect of pretreatment on response to cytotoxic conjugates,tumor cells,sensitized tumor cells to cytotoxic conjugates
